According to patent US6395896B2, “Pyridazine derivatives, manufacturing method and related composition” (Shiseido Co., Ltd., priority 1999, dated 2002):

How the values were obtained:
[1] = Perfume stabilization effect (photostabilizer, sunlight exposure, judgement by perfumier); set-up: key to Sunlight exposure (80 MJ) Smell evaluation / Sunlight exposure (80 MJ) evaluation: A: No change; B: No almost change; C: Yes change
Method: Next, the photostabilization effect for each perfume was studied by the following evaluation formulation.
Each test sample was prepared. Change of smell of sample exposed to sunlight (80 MJ) was observed (judgement by perfumier).

[2] = Photostability test (aqueous solution exposed to sunlight); format: physicochemical; settings: sunlight 80 MJ/m^2, two weeks
Method: After an aqueous solution of the pyridazine derivative of the present invention was exposed to sunlight (Amount of solar radiation exposure 80 MJ/m^2) for two weeks, residual yield and change of appearance were checked. UV absorption spectrum (Solvent: water, concentration: 10 ppm, Light path: 1 cm) was measured by spectrophotometer. Area value was calculated by integrating over the range of 290 nm to 400 nm of the ultraviolet rays absorption spectrum. The area value was compared with the value before sunlight exposure.
The residual yield and change of area value of ultraviolet rays absorption spectrum were evaluated by the following standard.
A: 95% or more of area value before sunlight exposure.
B: 90% or more and less than 95% of area value before sunlight exposure.
C: 70% or more and less than 90% of area value before sunlight exposure.
D: less than 70% of area value before sunlight exposure.

sunburn = assay: Ultraviolet rays prevention effect test on a beach (lotion and cream samples); format: in vivo, human
Method: The prevention effect test was carried out on a beach during the summer. Equal amounts of sample were applied to the right and left sides of the backs of test subjects. After direct sunlight exposure, the degree of sunburn was evaluated in accordance with the following criteria. Each group consisted of 20 subjects. (Criterion) Remarkable effect: None or almost no sunburn symptom was found. Positive effect: Slight sunburn symptom was found. Negative effect: Strong sunburn symptom was found. (Evaluation) A: Subject of remarkable effect or positive effect is 80% or more. B: Subject of remarkable effect or positive effect is 50% or more and less than 80%. C: Subject of remarkable effect or positive effect is 30% or more and less than 50%. D: Subject of remarkable effect or positive effect is less than 30% (ii) Preparation of sample (A) Lotion [table] Each of water phase and alcohol phase was prepared. Then each was mixed. (B) Cream [table] The propylene glycol was added to ion-exchanged water and was dissolved, which was kept at 70° C. by heating (Water phase). The other components were mixed and melted by heating and was kept at 70° C. (Oil phase). The oil phase was added to the water phase, and an emulsion was formed.. After it was homogeneously emulsified with a homogenixer, it was cooled at 30° C. with stirring well.

Oc1nncc(N2CCOCC2)c1N1CCOCC1 [4,5-Dimorpholino-3-hydroxypyridazine]
Sunlight exposure (80 MJ) evaluation ([1]; natural perfume Clary sage oil, photostabilizer amount 0.03 wt %): A
Sunlight exposure (80 MJ) evaluation ([1]; natural perfume Cloves oil, photostabilizer amount 0.03 wt %): A
Sunlight exposure (80 MJ) evaluation ([1]; natural perfume Coriander oil, photostabilizer amount 0.01 wt %): A
Sunlight exposure (80 MJ) evaluation ([1]; natural perfume Geranium oil, photostabilizer amount 0.03 wt %): A
Sunlight exposure (80 MJ) evaluation ([1]; natural perfume Lemon oil, photostabilizer amount 0.001 wt %): A
Sunlight exposure (80 MJ) evaluation ([1]; natural perfume Moss oil, photostabilizer amount 0.2 wt %): A
Sunlight exposure (80 MJ) evaluation ([1]; natural perfume Nutmeg oil, photostabilizer amount 0.01 wt %): A
Sunlight exposure (80 MJ) evaluation ([1]; natural perfume Oakmoss oil, photostabilizer amount 0.2 wt %): A
Sunlight exposure (80 MJ) evaluation ([1]; natural perfume Opopanax oil, photostabilizer amount 0.1 wt %): A
Sunlight exposure (80 MJ) evaluation ([1]; natural perfume Orange oil, photostabilizer amount 0.1 wt %): A
Sunlight exposure (80 MJ) evaluation ([1]; natural perfume Orris oil, photostabilizer amount 0.2 wt %): A
Sunlight exposure (80 MJ) evaluation ([1]; natural perfume Patchouli oil, photostabilizer amount 0.01 wt %): A
Sunlight exposure (80 MJ) evaluation ([1]; natural perfume Pepper oil, photostabilizer amount 0.001 wt %): A
Sunlight exposure (80 MJ) evaluation ([1]; natural perfume Peppermint oil, photostabilizer amount 0.03 wt %): A
Sunlight exposure (80 MJ) evaluation ([1]; natural perfume Sandals wood oil, photostabilizer amount 0.01 wt %): A
Sunlight exposure (80 MJ) evaluation ([1]; natural perfume Tuberose oil, photostabilizer amount 0.03 wt %): A
Sunlight exposure (80 MJ) evaluation ([1]; natural perfume Vetiver oil, photostabilizer amount 0.2 wt %): A
change of smell ([1]; natural perfume, summary of Table 17): very small in comparison with other photostabilizers
Sunlight exposure (80 MJ) Smell evaluation ([1]; synthetic perfume 2,6-Nonadienal, photostabilizer amount 0.03 wt %): A
Sunlight exposure (80 MJ) Smell evaluation ([1]; synthetic perfume Benzyl benzoate, photostabilizer amount 0.1 wt %): A
Sunlight exposure (80 MJ) Smell evaluation ([1]; synthetic perfume Cyclopentadecanone, photostabilizer amount 0.05 wt %): A
Sunlight exposure (80 MJ) Smell evaluation ([1]; synthetic perfume Eugenol, photostabilizer amount 0.1 wt %): A
Sunlight exposure (80 MJ) Smell evaluation ([1]; synthetic perfume Farnesol, photostabilizer amount 0.01 wt %): A
Sunlight exposure (80 MJ) Smell evaluation ([1]; synthetic perfume I-Carvone, photostabilizer amount 0.05 wt %): A
Sunlight exposure (80 MJ) Smell evaluation ([1]; synthetic perfume Indole, photostabilizer amount 0.2 wt %): A
Sunlight exposure (80 MJ) Smell evaluation ([1]; synthetic perfume Lilial, photostabilizer amount 0.3 wt %): A
Sunlight exposure (80 MJ) Smell evaluation ([1]; synthetic perfume Lyral, photostabilizer amount 0.3 wt %): A
Sunlight exposure (80 MJ) Smell evaluation ([1]; synthetic perfume Phenylacetaldehyde dimethyl acetal, photostabilizer amount 0.2 wt %): A
Sunlight exposure (80 MJ) Smell evaluation ([1]; synthetic perfume cis-3-Hexenol, photostabilizer amount 0.01 wt %): A
Sunlight exposure (80 MJ) Smell evaluation ([1]; synthetic perfume α-Hexyl cinnamic aldehyde, photostabilizer amount 0.03 wt %): A
Sunlight exposure (80 MJ) Smell evaluation ([1]; synthetic perfume β-Caryophyllene, photostabilizer amount 0.01 wt %): A
Sunlight exposure (80 MJ) Smell evaluation ([1]; synthetic perfume β-Ionone, photostabilizer amount 0.05 wt %): A
Sunlight exposure (80 MJ) Smell evaluation ([1]; synthetic perfume β-Phenylethyl alcohol, photostabilizer amount 0.03 wt %): A
Sunlight exposure (80 MJ) Smell evaluation ([1]; synthetic perfume γ-Undecalactone, photostabilizer amount 0.1 wt %): A
change of smell ([1]; synthetic perfume, summary of Table 18): very small in comparison with other photostabilizers
Residual yield [2]: A (95% or more of area value before sunlight exposure.)
Change of area value of UV absorption spectrum ([2]; 290 nm to 400 nm): A (95% or more of area value before sunlight exposure.)
UV prevent effect (sunburn; Cream, ultraviolet absorbent 0.0005 wt %): C (Subject of remarkable effect or positive effect is 30% or more and less than 50%.)
UV prevent effect (sunburn; Cream, ultraviolet absorbent 0.001 wt %): B (Subject of remarkable effect or positive effect is 50% or more and less than 80%.)
UV prevent effect (sunburn; Cream, ultraviolet absorbent 0.1 wt %): A (Subject of remarkable effect or positive effect is 80% or more.)
UV prevent effect (sunburn; Cream, ultraviolet absorbent 1 wt %): A (Subject of remarkable effect or positive effect is 80% or more.)
UV prevent effect (sunburn; Cream, ultraviolet absorbent 5 wt %): A (Subject of remarkable effect or positive effect is 80% or more.)
UV prevent effect (sunburn; Cream, ultraviolet absorbent 10 wt %): A (Subject of remarkable effect or positive effect is 80% or more.)
UV prevent effect (sunburn; Cream, ultraviolet absorbent 20 wt %): A (Subject of remarkable effect or positive effect is 80% or more.)
UV prevent effect (sunburn; Lotion, ultraviolet absorbent 0.0005 wt %): C (Subject of remarkable effect or positive effect is 30% or more and less than 50%.)
UV prevent effect (sunburn; Lotion, ultraviolet absorbent 0.001 wt %): B (Subject of remarkable effect or positive effect is 50% or more and less than 80%.)
UV prevent effect (sunburn; Lotion, ultraviolet absorbent 0.01 wt %): A (Subject of remarkable effect or positive effect is 80% or more.)
UV prevent effect (sunburn; Lotion, ultraviolet absorbent 1 wt %): A (Subject of remarkable effect or positive effect is 80% or more.)
UV prevent effect (sunburn; Lotion, ultraviolet absorbent 5 wt %): A (Subject of remarkable effect or positive effect is 80% or more.)
UV prevent effect (sunburn; Lotion, ultraviolet absorbent 10 wt %): A (Subject of remarkable effect or positive effect is 80% or more.)
UV prevent effect (sunburn; Lotion, ultraviolet absorbent 20 wt %): A (Subject of remarkable effect or positive effect is 80% or more.)
